Columns and labels:
[1] = cited from earlier work
[2] = system: urate peritonitis model; assay: Murine urate peritonitis model, total cellular influx; assay type: in vivo, CD1 mice; details: mice fed for a week before i.p. 3 mg MSU crystals; lavage after four hours; GMP 0.05-0.5 g per kg in drinking water; G600 precursor 12.5-100% of total fat in diet
Protocol: Adult male CD1 mice (Vernon Jansen Unit, University of Auckland) were housed in conventional facilities with temperature control and 12 hour light/dark cycles. All protocols involving live animals were subjected to ethical review and a range of welfare score sheets and action plans were used to monitor and minimize the impact of the study on the animals. Mice were fed milk extracts for a week prior to induction of peritonitis. At least eight mice were used for each experimental condition. GMP was dissolved in drinking water at 0.05, 0.1, 0.25 and 0.5 g per kg mouse. The G600™ milk fat extract precursor (Batch 2, freeze dried, no added lactose) was incorporated into rodent chow at 12.5, 25, 50 and 100% of total fat in diet.
The murine urate peritonitis protocol was based on the model described by Getting et al (1997). Adult male CD1 mice weighing 22-28 g were selected for the urate peritonitis model. Mice were anaesthetized using urethane. Peritonitis was induced by intraperitoneal injection of 3 mg MSU crystals resuspended in 250 μl PBS. The body temperature of anaesthetized mice was monitored and maintained at 37° C. using a heat pad, and hydration was maintained by subcutaneous injection of 0.9% NaCl (Normal Saline) at a volume of […] body weight two hours after initial treatments and every hour thereafter. […]

[3] = system: IL-8; assay: THP-1 cell assay analysed by ELISA, MSU crystal-stimulated IL-8 release; assay type: cell-based; details: THP-1 cells, PMA, 4 h pre-incubation, MSU crystals 0.5 mg/mL, supernatant after 16 h; highest concentration of test substance; mean of at least three experiments; * p<0.05 vs vehicle
Protocol: (§1) THP-1 cells were cultured in RPMI with 10% FCS, penicillin, streptomycin, glutamine and pyruvate. At day −1, 1.5×10^6 THP-1 cells were plated in 24 well plates. These cells were cultured in the presence or absence of 5 μM phorbol 12-myristate 13-acetate (PMA) for three hours. PMA is required for NALP-3 inflammasome activation and IL-1β production in response to MSU crystals. On day 0, medium was replaced in all wells. Cells were then pre-incubated with vehicle control, test substance at three concentrations, or diclofenac control (10 μg/ml) for 4 hours. MSU crystals were then added (0.5 mg/mL) Supernatants were harvested for ELISA after 16 hours. ELISA was conducted to determine inhibition of IL-1β expression. It has been reported that this cytokine is a pivotal regulator of the inflammatory response to MSU crystals (Chen et al 2006 and Martinon et al 2006). Inhibition of IL-8 expression was also determined.
(§2) A mean change in cytokine expression from cells treated with control vehicle pooled data from all experiments (10 μg/ml). Values represent mean (standard error) from at least three experiments in which cytokine release from wells treated with the highest concentration of milk extract has been normalized to vehicle treated wells.
(§3) The results are shown in Table 2 below and in FIGS. 1 and 2. Table 3 contrasts the result for GMP when the MSU was replaced with a different antigen, LPS. […]

[4] = system: IL-1β; assay: THP-1 cell assay analysed by ELISA, MSU crystal-stimulated IL-1β release; assay type: cell-based; details: THP-1 cells
Protocol: as §1, §2, §3

[5] = system: IL-1β; assay: THP-1 cell assay analysed by ELISA, MSU replaced with LPS, IL-1β production; assay type: cell-based; details: THP-1 cells, normalized to vehicle
Protocol: as §1
The results are shown in Table 2 below and in FIGS. 1 and 2. Table 3 contrasts the result for GMP when the MSU was replaced with a different antigen, LPS. The casein hydrolysate tested was produced by extensively hydrolysing casein (to a degree of hydrolysis of 33%) using the enzymes pancreatin and corolase. […]

[6] = system: IL-1β gene expression; assay: THP-1 cell assay analysed by RT-PCR, IL-1β gene expression; assay type: cell-based; details: THP-1 cells, treatment as in Example 1 (FIG. 5)
Text: THP-1 assays were used to study IL-1β and IL-8 gene expression by RT-PCR, using the same treatment protocols as described for the THP-1 ELISA assay in Example 1 above and the RT-PCR protocol described in Dalbeth et al, 2008.

In the case of `COc1cc2c(c(OC)c1OC)-c1ccc(OC)c(=O)cc1[C@@H](NC(C)=O)CC2` [colchicine, Colchicine], the adverse effects ([1]; all patients, within 24 hours of taking this medication) is given as “developed diarrhoea and/or vomiting” and the “reduction in pain in joints” value ([1]; gout patients, within 48 hours) is given as 50%.

In the case of Glycomacropeptide [GMP], the “total cellular influx in the urate peritonitis model” value [2] is reported as “significant inhibition”, the “IL-8 (cytokine release normalized to vehicle treated wells)” value [3] is reported as 1.22 and the “IL-1β (cytokine release normalized to vehicle treated wells)” value ([4]; PMA, 4 h pre-incubation, MSU crystals 0.5 mg/mL, supernatant after 16 h, highest concentration of test substance, mean of at least three experiments, * p<0.05 vs vehicle) is reported as 0.72*. The “MSU crystal-stimulated IL-1β production” value ([4]; normalized to vehicle, * p<0.05) was 0.72*, the “LPS-stimulated IL-1β production” value [5] was 0.94 and the IL-1β gene expression [6] was “inhibits”.

From patent US20110195128A1, “TREATING OR PREVENTING GOUT” (priority 2008, published 2011)
